Assay results published in patent US12403132B2, “Methods of treating bone marrow failure syndromes and compositions for use in the same” (The Board of Trustees of the Leland Stanford Junior …, priority 2020, dated 2025).
Where two headings read alike, the source gives them in different places.

Key:
[1] = system: CD235+ erythroblasts; assay: CD235+ erythroid expansion of differentiating human cord blood CD34+ progenitors (shRPS19/shRPL11 DBA models), flow cytometry; assay type: cell-based; settings: for CD235+ erythroid expansion in RPS19-insufficiency, % of control: 6.6% of controls (shLuc) untreated; for increase of erythroid expansion in RPS19-insufficiency: concentrations published to block TGFβ signaling, 15 days; for fold increase of erythroid expansion in response to SD208: 5 μM
Experimental: FIG. 7. […] (a) Differentiating cord blood CD34+ progenitors were transduced with shRNA against luciferase or RPS19 and treated with inhibitors at working concentrations for TGFβ inhibition every three days. Cells were counted and CD235+ erythroid cells were assessed by flow cytometry after 15 days. (b) Prior to flow cytometry, 5000 cells per group were taken from differentiating cultures for NLK kinase assay. (c) CD34+ progenitors were transduced with shRNA against luciferase or RPS19 and non-targeting or siRNA against NLK. After sorting, samples were split into two groups and either treated with vehicle or SD208 every three days. After 15 days cells were counted and subject to flow cytometry to compare the expansion of maturing CD235+ erythroid (left panel) and CD11b+ myeloid cells (right panel). (d) Cord Blood CD34+ progenitors were transduced with shRNA against luciferase (left panel) or RPS19 (right panel) differentiated in erythroid media for 15 days alone, or in the presence of SB525334 or SD208 at 5 μM. Cells were counted and CD235+ erythroid (D—upper) and CD11b+ myeloid cell (D—lower) percentages were determined by flow cytometry. The number of erythroid or myeloid cells is expressed as a percentage of the number of that lineage with no cytokine or drug treatment.
FIG. 8. […] Human cord blood CD34+ progenitors were transduced with lentivirus co-expressing GFP with shRNA against luciferase (shLuc), RPS19 (shRPS19) or RPL11 (shRPL11). After 36 hours cells GFP+ cells were differentiated in erythroid media in the presence or absence of 5 μM SD208 for 15 days. Cells were counted and assessed for cell surface expression of CD235. (a) The percentage of CD235+ cells was multiplied by the cell count and values were compared as a percentage of untreated controls. (b) Normalizing values relative to untreated RPS19-insufficiency progenitors facilitates direct comparison of erythropoiesis between untreated and SD208-treated cultures. (c) Approximately 3000 cells were removed from differentiating treatments at day 6 and NLK activity was assessed. Values were normalized to reflect a fold induction relative to untreated controls. (d) Lin-Kit+ hematopoietic progenitors were obtained from three mouse embryos expressing tetracycline-inducible shRNA against RPS19 at day E14.5 or three untreated mice, and thee mature RPL11^+/+ or three mature RPL11^+/lox mice treated with tamoxifen for eight weeks. Cells were grown in the presence or absence of doxycycline and/or SD208 for eight days prior to counting and assessing for ter119 surface expression. Values were expressed as a percentage relative to untreated controls (e) and directly comparing the effect of SD208 on erythropoiesis in ribosomal-insufficiency by expressing values relative to untreated ribosome-insufficient cultures (f). At day 5 approximately 3000 cells were assayed for NLK kinase assay (g). CD34+ HSPCs were isolated from three healthy control and three DBA patient mononuclear bone marrow aspirates by magnetic bead sorting and differentiated in the presence or absence of SD208 for 14 days. After counting the total cell population, the ratio of CD235+ erythroblasts was determined by flow cytometry and number of CD235+ erythroblasts calculated. This was expressed as a percentage of the average number of erythroid cells present in untreated healthy controls. (h) The direct effect of SD208 on erythroid expansion in DBA patient samples was calculated following normalization of untreated DBA patient samples as 1-fold, (i) At day five, 3000 cells from each of the differentiating cultures was analyzed for NLK activity by kinase assay and are expressed as a fold induction relative to untreated healthy controls.

[2] = system: CD235+ erythroblasts; assay: as above; assay type: cell-based; set-up: increase of erythroid expansion / impact on erythropoiesis in healthy controls / erythroid expansion in RPS19-insufficiency: dose or concentration left out as unconfirmed; settings: for erythroid expansion in RPS19-insufficiency: alone and combined; for increase of CD235+ erythroid expansion / CD235+ erythroid expansion, % of control: 50 mM metformin; for CD235+ erythroid expansion, % of control: 14 days

Cc1cccc(-c2nn3c(c2-c2ccnc4ccc(C(N)=O)cc24)CCC3)n1 [Galunisertib]
CD235+ erythroid expansion in RPS19-insufficiency, % of control [1]: 21% | increase of erythroid expansion in RPS19-insufficiency [1]: 3.2 fold

Fc1ccc(Cl)cc1-c1nc(Nc2ccncc2)c2nccnc2n1 [SD208]
CD235+ erythroid expansion in RPS19-insufficiency, % of control [1]: 41.5% | fold increase of erythroid expansion in response to SD208 ([1]; RPL11-insufficiency): 6.9 fold | erythroid expansion, % of untreated controls ([1]; RPL11-insufficiency, SD208 5 μM, 5.8% untreated): 36.7% | fold increase of erythroid expansion in response to SD208 ([1]; RPS19-insufficiency): 4.7 fold | erythroid expansion, % of untreated controls ([1]; RPS19-insufficiency, SD208 5 μM, 8.7% untreated): 38.7% | RPS19-insufficient erythroid expansion, fold of non-TGFβ-treated cells ([1]; TGFβ-treated, SD208 5 μM): 4.1 fold | increase of erythroid expansion in RPS19-insufficiency [1]: 6.3 fold | CD235+ erythroblast expansion, % of controls ([2]; RPS19-insufficient, SD208 and/or siRNA against NLK, 15 days): 40.3% | erythroid expansion, % of untreated controls ([2]; control shRNA, SD208 5 μM, 15 days): approximately 105%

CC(C)=CCC[C@](C)(O[C@@H]1O[C@H](CO[C@@H]2O[C@H](CO)[C@@H](O)[C@H](O)[C@H]2O)[C@@H](O)[C@H](O)[C@H]1O)[C@H]1CC[C@]2(C)[C@@H]1[C@H](O)C[C@@H]1[C@@]3(C)CC[C@H](O[C@@H]4O[C@H](CO)[C@@H](O)[C@H](O)[C@H]4O[C@@H]4O[C@H](CO)[C@@H](O)[C@H](O)[C@H]4O)C(C)(C)[C@@H]3CC[C@]12C [ginsenoside Rb1]
concentration at which 90% potency is achieved [2]: 8.6 mM | impact on erythropoiesis in healthy controls [2]: did not significantly impact | improvement of erythroid expansion ([2]; RPS19-insufficiency, ginsenoside and/or siRNA against NLK): 2.7 fold | increase of erythroid expansion ([2]; RPS19-insufficiency, miRNA and/or drug): 2.52 fold | increase of erythroid expansion ([2]; RPS19-insufficient progenitors): 2.6 fold | erythroid expansion in RPS19-insufficiency [2]: 20.9% | EC50 ([2]; read-out: EC50 value (erythroid expansion)): 2.3 mM

CN(C)C(=N)N=C(N)N [metformin]
concentrations at which significant erythroid improvement was detected [2]: above 8 mM | EC50 ([2]; Homo sapiens, read-out: EC50 (erythroid expansion)): 11.4 mM | increase of CD235+ erythroid expansion ([2]; RPL11-insufficiency): 2.0 fold | CD235+ erythroid expansion, % of control ([2]; RPL11-insufficiency, 16.4% untreated): 32.7% | improvement of erythropoiesis (CD235+) ([2]; RPS19-insufficiency (8.3% of controls untreated), 12 days): 3.6 fold | increase of CD235+ erythroid expansion ([2]; RPS19-insufficiency): 5.9 fold | CD235+ erythroid expansion, % of control ([2]; RPS19-insufficiency, 5.7% untreated): 33.3% | erythroid expansion in RPS19-insufficiency [2]: 28.4%

NC(=O)c1ccc(-c2nc(-c3ccc4c(c3)OCO4)c(-c3ccccn3)[nH]2)cc1 [SB431542]
CD235+ erythroid expansion in RPS19-insufficiency, % of control [1]: 21% | increase of erythroid expansion in RPS19-insufficiency [1]: 3.2 fold
